The values below are quoted from earlier work in patent publication US5668009A, “Methods for treating cotton-containing fabrics with CBH I enriched cellulase” (Genencor International, Inc., priority 1995, dated 1997).

Structures are written as SMILES.

Data set [1] concerns the target exo-cellobiohydrolase (CBH) type components, as characterized for CBH I and CBH II from Trichoderma reesei. The conditions noted are these: competitive inhibition; general characterisation of CBH components; read-out: Ki (cellobiose), competitive inhibition.
For data set [2], the target named is β-Glucosidase (BG) components of fungal cellulase. The conditions noted are these: competitive inhibition; general characterisation of BG components; read-out: Ki (glucose), competitive inhibition.

Broadly, the Ki is a measure of affinity in units of concentration, obtained from inhibition or displacement. Turning to `OC[C@H]1O[C@@H](O[C@H]2[C@H](O)[C@@H](O)C(O)O[C@@H]2CO)[C@H](O)[C@@H](O)[C@@H]1O` (some centres unmarked) [cellobiose], the Ki in data set [1] was roughly 1000 µM. Turning to `OC[C@H]1OC(O)[C@H](O)[C@@H](O)[C@@H]1O` (some centres unmarked) [glucose], the Ki in data set [2] is roughly 1000 µM.
